# Results reported in the supplement of paper PMC11208160.
# Experiment: recombinant UMI read abundance after kanamycin selection (control-corrected) (log10(CPM+1)); higher = more efficient recombination; extreme values may be limits of the assay; sequences stand for … in AGTGCAGAGAAAATCGGCCAGTTTTCTCTGCCTGCAGTCCGCATGCCGTGGGACCCCTTGGGTTCTAACCTGTTGCCTAGATTTATGCAGCGGACTGCCTTTCTCCCAAAGTGATAAACCGG…AGGTTGGTTTCACT; site = the 11-nt donor
# Outline: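 The measure is log10(CPM+1) for recombinant UMIs. These were PCR-amplified across the donor–target junction and sequenced after Escherichia coli carrying a donor and donor-binding-loop pair library and a target plasmid with T7-inducible IS621 bridge recombinase was plated on IPTG (0.07 mM) plus kanamycin or unselected. CPM were averaged over two replicates and scaled by control-derived factors.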
# 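Further: IS621 bridge recombinase in Escherichia coli cells against a fixed T5 target plasmid.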
row,Sequence,recombinant UMI read abundance (log10)
1,TTATGCACATGGACCGGTTTTCCCGGTAATCCGTATTTGTA (site TTATGCACTTA),0.769
2,TTATTCCCATGGACCGGTTTTCCCGGTAATCCGTATTTGCA (site TTATTCCCTTG),0
3,TTCAATGCATGGACCGGTTTTCCCGGTAATCCGTATTTGCA (site TTCAATGCTTG),0
4,TTCAGAGCATGGACCGGTTTTCCCGGTAATCCGTATTTGCC (site TTCAGAGCTGG),0
5,TTCAGCTCATGGACCGGTTTTCCCGGTAATCCGTATTTGGT (site TTCAGCTCTAC),0.00826
6,TTCAGTGCATGGACCGGTTTTCCCGGTAATCCGTATTTGGC (site TTCAGTGCTGC),0
7,TTCATACCATGGACCGGTTTTCCCGGTAATCCGTATTTGCC (site TTCATACCTGG),0
8,TTCCAGACATGGACCGGTTTTCCCGGTAATCCGTATTTGTA (site TTCCAGACTTA),0.13
9,TTCCCGCCATGGACCGGTTTTCCCGGTAATCCGTATTTGTT (site TTCCCGCCTAA),0.00311
10,TTCCGCGCATGGACCGGTTTTCCCGGTAATCCGTATTTGCC (site TTCCGCGCTGG),0.632
11,TTCCTAGCATGGACCGGTTTTCCCGGTAATCCGTATTTGAA (site TTCCTAGCTTT),0.0135
12,TTCCTATCATGGACCGGTTTTCCCGGTAATCCGTATTTGCA (site TTCCTATCTTG),1.53
13,TTCGAGCCATGGACCGGTTTTCCCGGTAATCCGTATTTGAC (site TTCGAGCCTGT),0
14,TTCGCGGCATGGACCGGTTTTCCCGGTAATCCGTATTTGCT (site TTAGCGGCTAG),0.33
15,TTCGCGGCATGGACCGGTTTTCCCGGTAATCCGTATTTGCT (site TTCGCGGCTAG),0.587
16,TTCGCGGCATGGACCGGTTTTCCCGGTAATCCGTATTTGCT (site TTGGCGGCTAG),0.00776
17,TTCGCGGCATGGACCGGTTTTCCCGGTAATCCGTATTTGCT (site TTTGCGGCTAG),0.0106
18,TTCGCTGCATGGACCGGTTTTCCCGGTAATCCGTATTTGTG (site TTAGCTGCTCA),0.018
19,TTCGCTGCATGGACCGGTTTTCCCGGTAATCCGTATTTGTG (site TTCGCTGCTCA),0.0258
20,TTCGCTGCATGGACCGGTTTTCCCGGTAATCCGTATTTGTG (site TTGGCTGCTCA),0.0131
21,TTCGCTGCATGGACCGGTTTTCCCGGTAATCCGTATTTGTG (site TTTGCTGCTCA),0.00847
22,TTCGTAACATGGACCGGTTTTCCCGGTAATCCGTATTTGAA (site GCTCGGCCTCC),0.019
23,TTCTAGACATGGACCGGTTTTCCCGGTAATCCGTATTTGTT (site TTCTAGACTAA),0.0133
24,TTCTATACATGGACCGGTTTTCCCGGTAATCCGTATTTGAC (site ATCTATACTGT),0
25,TTCTATACATGGACCGGTTTTCCCGGTAATCCGTATTTGAC (site CTCTATACTGT),0

row,Sequence,recombinant UMI read abundance (log10)
1,TTCTATACATGGACCGGTTTTCCCGGTAATCCGTATTTGAC (site GTCTATACTGT),0
2,TTCTATACATGGACCGGTTTTCCCGGTAATCCGTATTTGAC (site TTCTATACTGT),0.00704
3,TTCTCCACATGGACCGGTTTTCCCGGTAATCCGTATTTGGA (site TTCTCCACTTC),0.00322
4,TTCTCGACATGGACCGGTTTTCCCGGTAATCCGTATTTGTC (site TTCTCGACTGA),0
5,TTCTTAGCATGGACCGGTTTTCCCGGTAATCCGTATTTGTT (site TTCTTAGCTAA),0.0119
6,TTGACCACATGGACCGGTTTTCCCGGTAATCCGTATTTGCC (site TTGACCACTGG),1.79
7,TTGAGCGCATGGACCGGTTTTCCCGGTAATCCGTATTTGCC (site TTGAGCGCTGG),1.9
8,TTGAGGCCATGGACCGGTTTTCCCGGTAATCCGTATTTGAC (site TTGAGGCCTGT),0
9,TTGATAACATGGACCGGTTTTCCCGGTAATCCGTATTTGGG (site TTGATAACTCC),0.00616
10,TTGCATACATGGACCGGTTTTCCCGGTAATCCGTATTTGGA (site TTGCATACTTC),0.121
11,TTGCGCACATGGACCGGTTTTCCCGGTAATCCGTATTTGTG (site TTGCGCACTCA),0.0258
12,TTGGAGGCATGGACCGGTTTTCCCGGTAATCCGTATTTGTG (site ATGGAGGCTCA),0.342
13,TTGGAGGCATGGACCGGTTTTCCCGGTAATCCGTATTTGTG (site CTGGAGGCTCA),0.329
14,TTGGAGGCATGGACCGGTTTTCCCGGTAATCCGTATTTGTG (site GTGGAGGCTCA),0.0131
15,TTGGAGGCATGGACCGGTTTTCCCGGTAATCCGTATTTGTG (site TTGGAGGCTCA),0.791
16,TTGGGGCCATGGACCGGTTTTCCCGGTAATCCGTATTTGAA (site TTGGGGCCTTT),0.00375
17,TTGGTCACATGGACCGGTTTTCCCGGTAATCCGTATTTGAA (site TTGGTCACTTT),0.29
18,TTGGTCCCATGGACCGGTTTTCCCGGTAATCCGTATTTGAA (site TTGGTCCCTTT),0.00683
19,TTGGTGGCATGGACCGGTTTTCCCGGTAATCCGTATTTGGC (site TTGGTGGCTGC),1.84
20,TTGTTGCCATGGACCGGTTTTCCCGGTAATCCGTATTTGGT (site TTGTTGCCTAC),0.0353
21,TTGTTTGCATGGACCGGTTTTCCCGGTAATCCGTATTTGAG (site TTGTTTGCTCT),0.442
22,TTTACACCATGGACCGGTTTTCCCGGTAATCCGTATTTGAC (site TATACACCTGT),0
23,TTTACACCATGGACCGGTTTTCCCGGTAATCCGTATTTGAC (site TCTACACCTGT),0
24,TTTACACCATGGACCGGTTTTCCCGGTAATCCGTATTTGAC (site TGTACACCTGT),0
25,TTTACACCATGGACCGGTTTTCCCGGTAATCCGTATTTGAC (site TTTACACCTGT),0

row,Sequence,recombinant UMI read abundance (log10)
1,TTTACCCCATGGACCGGTTTTCCCGGTAATCCGTATTTGCT (site TTTACCCCTAG),0.0114
2,TTTACGGCATGGACCGGTTTTCCCGGTAATCCGTATTTGCT (site TTTACGGCTAG),0.234
3,TTTACGGCATGGACCGGTTTTCCCGGTAATCCGTATTTGCT (site TTTCCGGCTAG),0.00939
4,TTTACGGCATGGACCGGTTTTCCCGGTAATCCGTATTTGCT (site TTTGCGGCTAG),0.00519
5,TTTACGGCATGGACCGGTTTTCCCGGTAATCCGTATTTGCT (site TTTTCGGCTAG),0.0523
6,TTTAGAACATGGACCGGTTTTCCCGGTAATCCGTATTTGGC (site ATTAGAACTGC),0.0159
7,TTTAGAACATGGACCGGTTTTCCCGGTAATCCGTATTTGGC (site CTTAGAACTGC),0
8,TTTAGAACATGGACCGGTTTTCCCGGTAATCCGTATTTGGC (site GTTAGAACTGC),0
9,TTTAGAACATGGACCGGTTTTCCCGGTAATCCGTATTTGGC (site TTTAGAACTGC),0
10,TTTAGAGCATGGACCGGTTTTCCCGGTAATCCGTATTTGTT (site TTTAGAGCTAA),0.975
11,TTTAGCTCATGGACCGGTTTTCCCGGTAATCCGTATTTGTT (site TTTAGCTCTAA),0.0116
12,TTTCAAACATGGACCGGTTTTCCCGGTAATCCGTATTTGTG (site TTTCAAACTCA),0.0135
13,TTTCACCCATGGACCGGTTTTCCCGGTAATCCGTATTTGGG (site TTTCACCCTCC),0.00832
14,TTTCACTCATGGACCGGTTTTCCCGGTAATCCGTATTTGGT (site TTTCACTCTAC),0.00742
15,TTTCCGACATGGACCGGTTTTCCCGGTAATCCGTATTTGTA (site TTTCCGACTTA),0.018
16,TTTCTACCATGGACCGGTTTTCCCGGTAATCCGTATTTGGG (site TTTCTACCTCC),0.00805
17,TTTCTAGCATGGACCGGTTTTCCCGGTAATCCGTATTTGTA (site TTTCTAGCTTA),0.542
18,TTTCTCTCATGGACCGGTTTTCCCGGTAATCCGTATTTGTA (site ATTCTCTCTTA),0.353
19,TTTCTCTCATGGACCGGTTTTCCCGGTAATCCGTATTTGTA (site CTTCTCTCTTA),0.301
20,TTTCTCTCATGGACCGGTTTTCCCGGTAATCCGTATTTGTA (site GTTCTCTCTTA),0.297
21,TTTCTCTCATGGACCGGTTTTCCCGGTAATCCGTATTTGTA (site TTTCTCTCTTA),0.571
22,TTTCTGACATGGACCGGTTTTCCCGGTAATCCGTATTTGCC (site TTTCTGACTGG),0
23,TTTGAGACATGGACCGGTTTTCCCGGTAATCCGTATTTGGA (site TTTGAGACTTC),0.832
24,TTTGCCGCATGGACCGGTTTTCCCGGTAATCCGTATTTGCT (site TTTGCAGCTAG),0.0102
25,TTTGCCGCATGGACCGGTTTTCCCGGTAATCCGTATTTGCT (site TTTGCCGCTAG),0.548
